`CCC(O)CCC(F)(F)F` (stereo not given): the logP (in general, the decadic logarithm of the partition coefficient of the neutral form, usually between octanol and water) amounted to 1.7. Then `OCCCCCC(F)(F)F`, with 1.64; and `CC(C)(O)C(F)(F)F`, with 1.04.

Regarding `OCCCC(F)(F)F`, the log partition coefficient (logP) was 0.9. With `CC(CCO)C(F)(F)F` (stereo not given) the figure was 1.37; with `OCCC(F)(F)F`, 0.39. In turn, `CC(O)CC(F)(F)F` (stereo not given) gave a logP of 0.71.

`OCCCCC(F)(F)F`: the logP worked out at 1.15. With `CC(CO)CC(F)(F)F` (stereo not given) the figure was 1.39. In the case of `CC(CCO)CC(F)(F)F` (stereo not given), the logP amounted to 1.61.

The values above are taken from the OPERA property sets (Mansouri et al. 2018).
